Assay results reported in article PMC12383022, “Discovery of a Novel Antimicrobial Peptide from Paenibacillus sp. Na14 with Potent Activity Against Gram-Negative Bacteria and Genomic Insights into Its Biosynthetic Pathway” (Antibiotics, 2025).
In brackets after ≈: the same amount, converted by molar mass.

Columns and labels:
[1] = system: MRSA Strain 2468; assay: Agar well diffusion assay; type: cell-based, Staphylococcus aureus
Text: (§1) To identify potential active bacterial isolates, the cross-streak and agar well diffusion method was employed against S. aureus TISTR 517 and E. coli TISTR 887, following the protocol described in a previous study. The production kinetics of antibacterial substances by the active bacterial isolates were investigated. Single colonies were suspended in 0.9% NaCl solution, and the turbidity was adjusted to an optical density (OD) of 0.35 at 625 nm. Two milliliters of the cell suspension were inoculated into 98 mL of LB broth and incubated at 37 °C with shaking at 150 rpm for seven days. At each time interval, bacterial growth was evaluated by measuring the OD at 625 nm using a UV-Vis spectrophotometer (JASCO Corporation, Tokyo, Japan). The cell-free supernatant (CFS) was obtained by centrifuging the culture at 10,000× g at 4 °C for 15 min. Subsequently, 100 µL of the supernatant was loaded into wells on MH agar plates precultured with tested pathogens. Colistin and vancomycin served as positive controls in agar well diffusion assay.

[2] = system: S. aureus TISTR 517; assay: Agar well diffusion assay; type: cell-based, Staphylococcus aureus
Text: as §1

[3] = system: P. aeruginosa TISTR 357; type: cell-based, Pseudomonas aeruginosa; conditions: broth microdilution, 37 °C, 24 h, triplicate
Method: (§2) A bacterial suspension was prepared by adjusting its turbidity at OD 625 nm to 0.1 and subsequently made a 20-fold dilution using Cation-Adjusted Mueller–Hinton broth (CAHMB) as a diluent. […] The diluted cell suspension (10 µL) was added to each well, and the plates were incubated at 37 °C for 24 h. The CAMHB alone was used as a negative control, while CAMHB containing colistin or vancomycin served as a positive control.

[4] = system: E. coli TISTR 887; type: cell-based, Escherichia coli; conditions: broth microdilution, 37 °C, 24 h, triplicate
Method: as §2

[5] = system: K. pneumoniae TISTR 1383; assay: Agar well diffusion assay; type: cell-based, Klebsiella pneumoniae
Text: as §1

[6] = system: E. coli TISTR 887; assay: Agar well diffusion assay; type: cell-based, Escherichia coli
Text: as §1

[7] = system: K. pneumoniae TISTR 1383; type: cell-based, Klebsiella pneumoniae; conditions: broth microdilution, 37 °C, 24 h, triplicate
Method: as §2

[8] = system: P. aeruginosa TISTR 357; assay: Agar well diffusion assay; type: cell-based, Pseudomonas aeruginosa
Text: as §1

[9] = system: E. coli; design: method as in PMID 36912655; conditions: cited from earlier work
[10] = system: MRSA Strain 2468; assay: microbe, parasite or virus in culture; type: cell-based, Staphylococcus aureus; conditions: Staphylococcus aureus, MRSA, 24 h
Method: as §2

[11] = system: S. aureus TISTR 517; assay: microbe, parasite or virus in culture; type: cell-based, Staphylococcus aureus; conditions: Staphylococcus aureus, TISTR517, 24 h, read-out: MBC, S. aureus TISTR 517
Method: as §2

[12] = agar well diffusion, MH agar, CFS obtained at 24 h of cultivation, 100 µL per well, colistin 25 μg, vancomycin 30 μg, mean ± SD, n = 3

## Colistin [reference compound]
[1]; [12]
  Zone of Inhibition, MRSA Strain 2468: 0.00 ± 0.00 mm
[2]; [12]
  Zone of Inhibition, S. aureus TISTR 517: 0.00 ± 0.00 mm
[3]; CAMHB
  MIC, P. aeruginosa TISTR 357: 2 µg/mL
[3]; then plated on MH agar
  MBC, P. aeruginosa TISTR 357: 2 µg/mL
[4]; CAMHB
  MIC, E. coli TISTR 887: 1 µg/mL
[4]; then plated on MH agar
  MBC, E. coli TISTR 887: 1 µg/mL
[5]; [12]
  Zone of Inhibition, K. pneumoniae TISTR 1383: 26.67 ± 0.22 mm
[6]; [12]
  Zone of Inhibition, E. coli TISTR 887: 26.52 ± 0.43 mm
[7]; CAMHB
  MIC, K. pneumoniae TISTR 1383: 1 µg/mL
[7]; then plated on MH agar
  MBC, K. pneumoniae TISTR 1383: 1 µg/mL
[8]; [12]
  Zone of Inhibition, P. aeruginosa TISTR 357: 29.41 ± 0.65 mm

## brevicidine
[9]; 0.5× to 2× MIC
  viability of E. coli at lower concentrations: remained viable
[9]; peptide at 4× MIC
  time to eradication of E. coli: 1 h

## CN[C@H](CC(C)C)C(=O)N[C@H]1C(=O)N[C@@H](CC(N)=O)C(=O)N[C@H]2C(=O)N[C@H]3C(=O)N[C@H](C(=O)N[C@H](C(=O)O)c4cc(O)cc(O)c4-c4cc3ccc4O)[C@H](O)c3ccc(c(Cl)c3)Oc3cc2cc(c3O[C@@H]2O[C@H](CO)[C@@H](O)[C@H](O)[C@H]2O[C@H]2C[C@](C)(N)[C@H](O)[C@H](C)O2)Oc2ccc(cc2Cl)[C@H]1O [Vancomycin]
[1]; Staphylococcus aureus, MRSA, 24 h, read-out: Zone of Inhibition, MRSA Strain 2468
  zone of inhibition at 30 µg/disc: 29 ± 0.43 mm
[2]; Staphylococcus aureus, TISTR517, 24 h, read-out: Zone of Inhibition, S. aureus TISTR 517
  zone of inhibition at 30 µg/disc: 28.5 ± 0.22 mm
[5]; Klebsiella pneumoniae, TISTR1383, 24 h, read-out: Zone of Inhibition, K. pneumoniae TISTR 1383
  zone of inhibition at 30 µg/disc: 0 mm
[10]; read-out: MBC, MRSA strain 2468
  MBC: 4 µg/mL (≈ 2.76 µM)
[10]; read-out: MIC, MRSA strain 2468
  MIC: 4 µg/mL (≈ 2.76 µM)
[11]
  MBC: 2 µg/mL (≈ 1.38 µM)
[6]; Escherichia coli, TISTR887, 24 h, read-out: Zone of Inhibition, E. coli TISTR 887
  zone of inhibition at 30 µg/disc: 0 mm
[8]; Pseudomonas aeruginosa, TISTR357, 24 h, read-out: Zone of Inhibition, P. aeruginosa TISTR 357
  zone of inhibition at 30 µg/disc: 0 mm
